Laboratory results as given in patent US10202377B2, “3-(1H-benzo[D]imidazol-2-yl)-1H-pyrazolo[3,4-C]pyridine and therapeutic uses thereof” (Samumed, LLC, priority 2014, dated 2019).

Assays:
[1] = test system: primary human fibroblasts derived from IPF patients (LL29 cells); assay: Inhibition of fibrosis (αSMA staining) in TGF-β1-treated primary human fibroblasts from IPF patients; format: cell-based; settings: Fibroblast, 96 h, TGF-β1 20 ng/mL, 4 days
Description: The above synthesized compounds were screened using primary human fibroblasts (derived from IPF patients) treated with TGF-β1 to determine their ability to inhibit the fibrotic process.
Compound Screening: Each compound was dissolved in DMSO as a 10 mM stock and used to prepare compound source plates. […] LL29 cells were plated at 1,500 cells/well in 80 μl/well F12 medium supplemented with 1% Fetal Bovine Serum. One hour after addition of the cells, TGF-β1 (Peprotech; 20 ng/mL) was added to the plates to induce fibrosis (ref. 1 and 2 above). Wells treated with TGF-β1 and containing DMSO were used as controls. Cells were incubated at 37° C. and 5% CO2 for 4 days. Following incubation for 4 days, SYTOX green nucleic acid stain (Life Technologies [Thermo Fisher Scientific]) was added to the wells at a final concentration of 1 uM and incubated at room temperature for 30 min. Cells were then fixed using 4% formaldehyde (Electron Microscopy Sciences), washed 3 times with PBS followed by blocking and permeabilization using 3% Bovine Serum Albumin (BSA; Sigma) and 0.3% Triton X-100 (Sigma) in PBS. Cells were then stained with antibody specific to α-smooth muscle actin (aSMA; Abcam) (ref. 1 and 2 above) in 3% Bovine Serum Albumin (BSA; Sigma) and 0.3% Triton X-100 (Sigma) in PBS, and incubated overnight at 4° C. […] Dead or apoptotic cells were excluded from analysis based on positive SYTOX green staining. % of total cells positive for αSMA were counted in each well and normalized to the average of 11 wells treated with TGF-β1 on the same plate using Dotmatics' Studies Software. […] The EC50 values are reported.

[2] = test system: Wnt activity (Sp5-Luc reporter, SW480 colon carcinoma cells); assay: Sp5-Luc Wnt reporter gene screening assay in SW480 colon carcinoma cells; settings: Homo sapiens

Structure (SMILES) | EC50 [1] | IC50 [2]
O=C(Nc1cncc(-c2cc3c(-c4nc5c(-c6ccccc6F)cccc5[nH]4)n[nH]c3cn2)c1)C1CCCC1 [Compound 73, N-(5-(3-(4-(2-Fluorophenyl)-1H-benzo[d]imidazol-2-yl)-1H-pyrazolo[3,4-c]pyridin-5-yl)pyridin-3-yl)cyclopentanecarboxamide] | 1190 nM | 123 nM
CC(C)C(=O)Nc1cncc(-c2cc3c(-c4nc5c(-c6cccnc6)cccc5[nH]4)n[nH]c3cn2)c1 [Compound 87, N-(5-(3-(4-(Pyridin-3-yl)-1H-benzo[d]imidazol-2-yl)-1H-pyrazolo[3,4-c]pyridin-5-yl)pyridin-3-yl)isobutyramide] | 124 nM | 45.4 nM
CC(C)Nc1cncc(-c2cc3c(-c4nc5c(-c6cccnc6)cccc5[nH]4)n[nH]c3cn2)c1 [Compound 90, N-Isopropyl-5-(3-(4-(pyridin-3-yl)-1H-benzo[d]imidazol-2-yl)-1H-pyrazolo[3,4-c]pyridin-5-yl)pyridin-3-amine] | 9 nM | 13.9 nM
c1cncc(-c2cccc3[nH]c(-c4n[nH]c5cnc(-c6cncc(CN7CCCCC7)c6)cc45)nc23)c1 [Compound 93, 5-(5-(Piperidin-1-ylmethyl)pyridin-3-yl)-3-(4-(pyridin-3-yl)-1H-benzo[d]imidazol-2-yl)-1H-pyrazolo[3,4-c]pyridine] | 9 nM | 534 nM
c1ccc(CNCc2cncc(-c3cc4c(-c5nc6c(-c7cccnc7)cccc6[nH]5)n[nH]c4cn3)c2)cc1 [Compound 101, N-Benzyl-1-(5-(3-(4-(pyridin-3-yl)-1H-benzo[d]imidazol-2-yl)-1H-pyrazolo[3,4-c]pyridin-5-yl)pyridin-3-yl)methanamine] | 9 nM | 183 nM
Cc1ccncc1-c1cc2c(-c3nc4c(-c5ccncc5)cccc4[nH]3)n[nH]c2cn1 [Compound 109, 5-(4-Methylpyridin-3-yl)-3-(4-(pyridin-4-yl)-1H-benzo[d]imidazol-2-yl)-1H-pyrazolo[3,4-c]pyridine] | 29 nM | 42.5 nM
O=C(Nc1cncc(-c2cc3c(-c4nc5c(-c6ccncc6)cccc5[nH]4)n[nH]c3cn2)c1)C1CCCCC1 [Compound 126, N-(5-(3-(4-(Pyridin-4-yl)-1H-benzo[d]imidazol-2-yl)-1H-pyrazolo[3,4-c]pyridin-5-yl)pyridin-3-yl)cyclohexanecarboxamide] | 9990 nM | > 10000 nM
CCNCc1cncc(-c2cc3c(-c4nc5c(-c6ccccn6)cccc5[nH]4)n[nH]c3cn2)c1 [Compound 136, N-((5-(3-(4-(Pyridin-2-yl)-1H-benzo[d]imidazol-2-yl)-1H-pyrazolo[3,4-c]pyridin-5-yl)pyridin-3-yl)methyl)ethanamine] | 122 nM | 177 nM
O=C(Nc1cncc(-c2cc3c(-c4nc5c(-c6ccccn6)cccc5[nH]4)n[nH]c3cn2)c1)c1ccccc1 [Compound 141, N-(5-(3-(4-(Pyridin-2-yl)-1H-benzo[d]imidazol-2-yl)-1H-pyrazolo[3,4-c]pyridin-5-yl)pyridin-3-yl)benzamide] | 39 nM | 411 nM
CCCCC(=O)Nc1cncc(-c2cc3c(-c4nc5c(-c6ccccn6)cccc5[nH]4)n[nH]c3cn2)c1 [Compound 148, N-(5-(3-(4-(Pyridin-2-yl)-1H-benzo[d]imidazol-2-yl)-1H-pyrazolo[3,4-c]pyridin-5-yl)pyridin-3-yl)pentanamide] | 225 nM | 177 nM
c1ccc(-c2cccc3[nH]c(-c4n[nH]c5cnc(-c6cncc(CNCC7CCCC7)c6)cc45)nc23)nc1 [Compound 154, 1-Cyclopentyl-N-((5-(3-(4-(pyridin-2-yl)-1H-benzo[d]imidazol-2-yl)-1H-pyrazolo[3,4-c]pyridin-5-yl)pyridin-3-yl)methyl)methanamine] | 9 nM | 596 nM
CCC(=O)Nc1cncc(-c2cc3c(-c4nc5c(N6CCCCC6)cccc5[nH]4)n[nH]c3cn2)c1 [Compound 157, N-(5-(3-(4-(Piperidin-1-yl)-1H-benzo[d]imidazol-2-yl)-1H-pyrazolo[3,4-c]pyridin-5-yl)pyridin-3-yl)propionamide] | 99 nM | 97.2 nM
O=C(Nc1cncc(-c2cc3c(-c4nc5c(N6CCCCC6)cccc5[nH]4)n[nH]c3cn2)c1)C1CC1 [Compound 175, N-(5-(3-(4-(Piperidin-1-yl)-1H-benzo[d]imidazol-2-yl)-1H-pyrazolo[3,4-c]pyridin-5-yl)pyridin-3-yl)cyclopropanecarboxamide] | 187 nM | 76.9 nM
FC1(F)CCN(Cc2cncc(-c3cc4c(-c5nc6c(N7CCCCC7)cccc6[nH]5)n[nH]c4cn3)c2)C1 [Compound 181, 5-(5-((3,3-Difluoropyrrolidin-1-yl)methyl)pyridin-3-yl)-3-(4-(piperidin-1-yl)-1H-benzo[d]imidazol-2-yl)-1H-pyrazolo[3,4-c]pyridine] | 9 nM | 87.1 nM
Cc1cn(-c2cccc3[nH]c(-c4n[nH]c5cnc(-c6cncc(NC(=O)C(C)(C)C)c6)cc45)nc23)cn1 [Compound 190, N-(5-(3-(4-(4-Methyl-1H-imidazol-1-yl)-1H-benzo[d]imidazol-2-yl)-1H-pyrazolo[3,4-c]pyridin-5-yl)pyridin-3-yl)pivalamide] | 9 nM | 53.5 nM
Cc1cn(-c2cccc3[nH]c(-c4n[nH]c5cnc(-c6cncc(NC(=O)C7CCC7)c6)cc45)nc23)cn1 [Compound 202, N-(5-(3-(4-(4-Methyl-1H-imidazol-1-yl)-1H-benzo[d]imidazol-2-yl)-1H-pyrazolo[3,4-c]pyridin-5-yl)pyridin-3-yl)cyclobutanecarboxamide] | 9 nM | 63.2 nM
CN1CCN(c2cccc3[nH]c(-c4n[nH]c5cnc(-c6cncc(NC(=O)C7CCCC7)c6)cc45)nc23)CC1 [Compound 229, N-(5-(3-(4-(4-Methylpiperazin-1-yl)-1H-benzo[d]imidazol-2-yl)-1H-pyrazolo[3,4-c]pyridin-5-yl)pyridin-3-yl)cyclopentanecarboxamide] | 9990 nM | 628 nM
CN1CCN(c2cccc3[nH]c(-c4n[nH]c5cnc(-c6cncnc6)cc45)nc23)CC1 [Compound 234, 3-(4-(4-Methylpiperazin-1-yl)-1H-benzo[d]imidazol-2-yl)-5-(pyrimidin-5-yl)-1H-pyrazolo[3,4-c]pyridine] | 9 nM | 798 nM
O=C(Cc1ccccc1)Nc1cncc(-c2cc3c(-c4nc5ccccc5[nH]4)n[nH]c3cn2)c1 [Compound 244, N-(5-(3-(1H-Benzo[d]imidazol-2-yl)-1H-pyrazolo[3,4-c]pyridin-5-yl)pyridin-3-yl)-2-phenylacetamide] | 1960 nM | 211 nM
CC(C)(C)CC(=O)Nc1cncc(-c2cc3c(-c4nc5ccccc5[nH]4)n[nH]c3cn2)c1 [Compound 250, N-(5-(3-(1H-Benzo[d]imidazol-2-yl)-1H-pyrazolo[3,4-c]pyridin-5-yl)pyridin-3-yl)-3,3-dimethylbutanamide] | 258 nM | 183 nM
Cc1ccncc1-c1cc2c(-c3nc4c(-c5ccsc5)cccc4[nH]3)n[nH]c2cn1 [Compound 265, 5-(4-Methylpyridin-3-yl)-3-(4-(thiophen-3-yl)-1H-benzo[d]imidazol-2-yl)-1H-pyrazolo[3,4-c]pyridine] | 9 nM | 19.4 nM
CC(C)(C)C(=O)Nc1cncc(-c2cc3c(-c4nc5c(-c6ccsc6)cccc5[nH]4)n[nH]c3cn2)c1 [Compound 268, N-(5-(3-(4-(Thiophen-3-yl)-1H-benzo[d]imidazol-2-yl)-1H-pyrazolo[3,4-c]pyridin-5-yl)pyridin-3-yl)pivalamide] | 9 nM | 76.1 nM
O=C(Nc1cncc(-c2cc3c(-c4nc5c(-c6ccsc6)cccc5[nH]4)n[nH]c3cn2)c1)c1ccccc1 [Compound 271, N-(5-(3-(4-(Thiophen-3-yl)-1H-benzo[d]imidazol-2-yl)-1H-pyrazolo[3,4-c]pyridin-5-yl)pyridin-3-yl)benzamide] | 9 nM | 53.8 nM
CCCC(=O)Nc1cncc(-c2cc3c(-c4nc5c(-c6ccsc6)cccc5[nH]4)n[nH]c3cn2)c1 [Compound 277, N-(5-(3-(4-(Thiophen-3-yl)-1H-benzo[d]imidazol-2-yl)-1H-pyrazolo[3,4-c]pyridin-5-yl)pyridin-3-yl)butyramide] | 9 nM | 43.5 nM
c1ccc(CNCc2cncc(-c3cc4c(-c5nc6c(-c7ccsc7)cccc6[nH]5)n[nH]c4cn3)c2)cc1 [Compound 283, N-Benzyl-1-(5-(3-(4-(thiophen-3-yl)-1H-benzo[d]imidazol-2-yl)-1H-pyrazolo[3,4-c]pyridin-5-yl)pyridin-3-yl)methanamine] | 9 nM | 30.9 nM
CCNCc1cncc(-c2cc3c(-c4nc5c(-c6ccoc6)cccc5[nH]4)n[nH]c3cn2)c1 [Compound 292, N-((5-(3-(4-(Furan-3-yl)-1H-benzo[d]imidazol-2-yl)-1H-pyrazolo[3,4-c]pyridin-5-yl)pyridin-3-yl)methyl)ethanamine] | 9 nM | 29.6 nM
